Target: BRD4 (Homo sapiens, UniProt O60885)
Assay: Summary of E3 ligase directed degradation of BRD4, estimated from Western Blot or WES (Tables 1-6)
Format: cell-based
Parameters: endogenous in cells; host or cells: HeLa, MCF7 or HCT116
Conditions: for Degradation of BRD4, combination with VHL ligand [drawing 442]: aromatic 1,2-diol-containing VHL ligand drawn as drawing 442 (by the text apparently 8305); for Degradation of BRD4, combination with CRBN ligand [drawing 421] / Degradation of BRD4, combination with CRBN ligand [drawing 422] / Degradation of BRD4, combination with CRBN ligand [drawing 397]: Table 1; for Degradation of BRD4, combination with CRBN ligand [drawing 421]: CRBN ligand drawn as drawing 421 (by the text apparently 8047); for Degradation of BRD4, combination with CRBN ligand [drawing 422]: CRBN ligand drawn as drawing 422 (by the text apparently 8066); for Degradation of BRD4, combination with CRBN ligand [drawing 397]: aromatic 1,2-diol- or hindered cis-1,2-diol-containing CRBN ligand drawn as drawing 397 (by the text apparently 8046); for Degradation of BRD4, combination with MDM2 ligand [drawing 431]: Table 2, aromatic 1,2-diol-containing MDM2 ligand drawn as drawing 431 (by the text apparently 8314); for Degradation of BRD4, combination with CRBN ligand [drawing 457]: Table 4, aryl-boronic acid-containing CRBN ligand drawn as drawing 457 (by the text apparently 8048)
Procedure: HeLa, MCF7, or HCT116 cells (2.5-3×10^6) were treated for 24 hours with the indicated compounds solubilized in DMSO. The cells were washed in ice-cold PBS and were then lysed in RIPA lysis buffer (150 mM NaCl, 5 mM EDTA, 1% NP-40, 0.5% sodium deoxycholate, 0.1% SDS, 50 mM Tris, pH 8.0) with Roche protease inhibitor complete cocktail and phosphatase inhibitors (10 mM sodium fluoride, 10 mM sodium pyrophosphate, 1 mM sodium orthovanadate and 20 mM β-glycerophosphate). The total protein concentrations were determined by Bradford Protein Assay and 10-20 μg of protein was loaded onto 4-15% Tris-Glycine gradient gels (Biorad). After standard gel electrophoresis, the separated proteins were transferred to PVDF membrane by wet transfer. The immunoblots were then blocked for 1 hour in 5% skim milk in TBST or 5% BSA in TBST, according to manufacturer's instructions, before an overnight incubation at 4° C. with indicated antibodies and membranes. Membranes were then incubated with the appropriate horseradish peroxidase-conjugated secondary antibodies (1:5,000 dilution) for 1 h at room temperature and the bands were visualized using the Clarity Max Western ECL Substrate (Biorad) and the ChemiDoc Imaging System (Biorad). Signal was detected with ECL Western Blotting Substrate (Pierce) and X-ray film processed with a Konica SRX-101 X-ray film processor or captured by Bio-Rad's Chemidoc Imaging system.
WES Simple analysis was performed on WES system (ProteinSimple-Biotechne) according to the manufacturer's instructions. Total protein concentrations of cell lysates were determined by the Pierce BCA kit (Thermo Fisher). 3 μL of 0.3 μg/uL of the protein lysate was loaded onto a 12- to 230-kDa WES assay plate (ProteinSimple) where 300 nL sample was withdrawn through a capillary, subjected to electrophoretic separation of proteins by size, and followed by the simultaneous, HRP-based detection of proteins using the Anti-Rabbit Detection Module (Proteinsimple: #DM-001). The electropherograms were checked then the automatic peak detection was manually corrected if it was required.
A black check mark indicates efficacy of 30% to 70% or higher protein degradation.

COc1ccc2c(c1)C(c1ccc(Cl)cc1)=N[C@@H](CC(=O)NCCNC(=O)c1cccc(B(O)O)c1)c1nnc(C)n1-2 [BRD-E02]
Degradation of BRD4, combination with VHL ligand [drawing 442] (Table 3): ✓ (A black check mark indicates efficacy of 30% to 70% or higher protein degradation)

COc1ccc2c(c1)C(c1ccc(Cl)cc1)=N[C@@H](CC(=O)NCCCNC(=O)c1cccc(B(O)O)c1)c1nnc(C)n1-2 [BRD-E04]
Degradation of BRD4, combination with CRBN ligand [drawing 421]: ✓ (A black check mark indicates efficacy of 30% to 70% or higher protein degradation)
Degradation of BRD4, combination with CRBN ligand [drawing 422]: ✓ (A black check mark indicates efficacy of 30% to 70% or higher protein degradation)
Degradation of BRD4, combination with CRBN ligand [drawing 397]: ✓ (A black check mark indicates efficacy of 30% to 70% or higher protein degradation)

COc1ccc2c(c1)C(c1ccc(Cl)cc1)=N[C@@H](CC(=O)NCCCCNC(=O)c1ccc(B(O)O)cc1)c1nnc(C)n1-2 [BRD-E05]
Degradation of BRD4, combination with CRBN ligand [drawing 421]: ✓ (A black check mark indicates efficacy of 30% to 70% or higher protein degradation)
Degradation of BRD4, combination with CRBN ligand [drawing 422]: ✓ (A black check mark indicates efficacy of 30% to 70% or higher protein degradation)

COc1ccc2c(c1)C(c1ccc(Cl)cc1)=N[C@@H](CC(=O)NCCCCCNC(=O)c1ccc(B(O)O)cc1)c1nnc(C)n1-2 [BRD-E07]
Degradation of BRD4, combination with CRBN ligand [drawing 422]: ✓ (A black check mark indicates efficacy of 30% to 70% or higher protein degradation)

COc1ccc2c(c1)C(c1ccc(Cl)cc1)=N[C@@H](CC(=O)NCc1ccc(B(O)O)cc1)c1nnc(C)n1-2 [BRD-E09, (4-((2-((4S)-6-(4-chlorophenyl)-8-methoxy-1-methyl-4H-benzo[f][1,2,4]triazolo[4,3-a][1,4]diazepin-4-yl)acetamido)methyl)phenyl)boronic acid]
Degradation of BRD4, combination with CRBN ligand [drawing 421]: ✓ (A black check mark indicates efficacy of 30% to 70% or higher protein degradation)
Degradation of BRD4, combination with VHL ligand [drawing 442] (Table 3): ✓ (A black check mark indicates efficacy of 30% to 70% or higher protein degradation)

COc1ccc2c(c1)C(c1ccc(Cl)cc1)=N[C@@H](CC(=O)NCc1cccc(B(O)O)c1)c1nnc(C)n1-2 [BRD-E10]
Degradation of BRD4, combination with CRBN ligand [drawing 421]: ✓ (A black check mark indicates efficacy of 30% to 70% or higher protein degradation)
Degradation of BRD4, combination with CRBN ligand [drawing 397]: ✓ (A black check mark indicates efficacy of 30% to 70% or higher protein degradation)
Degradation of BRD4, combination with VHL ligand [drawing 441] (Table 3, aromatic 1,2-diol-containing VHL ligand drawn as drawing 441 (by the text apparently 8304)): ✓ (A black check mark indicates efficacy of 30% to 70% or higher protein degradation)

COc1ccc2c(c1)C(c1ccc(Cl)cc1)=N[C@@H](CC(=O)NCCc1ccc(B(O)O)cc1)c1nnc(C)n1-2 [BRD-E14, (4-(2-(2-((4S)-6-(4-chlorophenyl)-8-methoxy-1-methyl-4H-benzo[f][1,2,4]triazolo[4,3-a][1,4]diazepin-4-yl)acetamido)ethyl)phenyl)boronic acid]
Degradation of BRD4, combination with CRBN ligand [drawing 421]: ✓ (A black check mark indicates efficacy of 30% to 70% or higher protein degradation)
Degradation of BRD4, combination with MDM2 ligand [drawing 431]: ✓ (A black check mark indicates efficacy of 30% to 70% or higher protein degradation)
Degradation of BRD4, combination with VHL ligand [drawing 442] (Table 3): ✓ (A black check mark indicates efficacy of 30% to 70% or higher protein degradation)

COc1ccc2c(c1)C(c1ccc(Cl)cc1)=N[C@@H](CC(=O)NCCNC(=O)Cc1ccc(B(O)O)cc1)c1nnc(C)n1-2 [BRD-E27, (4-(2-((2-(2-((4S)-6-(4-chlorophenyl)-8-methoxy-1-methyl-4H-benzo[f][1,2,4]triazolo[4,3-a][1,4]diazepin-4-yl)acetamido)ethyl)amino)-2-oxoethyl)phenyl)boronic acid]
Degradation of BRD4, combination with CRBN ligand [drawing 421]: ✓ (A black check mark indicates efficacy of 30% to 70% or higher protein degradation)

COc1ccc2c(c1)C(c1ccc(Cl)cc1)=N[C@@H](CC(=O)NCCNC(=O)Cc1cccc(B(O)O)c1)c1nnc(C)n1-2 [BRD-E38]
Degradation of BRD4, combination with CRBN ligand [drawing 421]: ✓ (A black check mark indicates efficacy of 30% to 70% or higher protein degradation)

CCNC(=O)C[C@@H]1N=C(c2ccc(Cl)cc2)c2cc(OCCOCCNC(=O)c3ccc(B(O)O)cc3)ccc2-n2c(C)nnc21 [BRD-E39]
Degradation of BRD4, combination with CRBN ligand [drawing 397]: ✓ (A black check mark indicates efficacy of 30% to 70% or higher protein degradation)

CCNC(=O)C[C@@H]1N=C(c2ccc(Cl)cc2)c2cc(OCCOCCOCCNC(=O)c3cccc(B(O)O)c3)ccc2-n2c(C)nnc21 [BRD-E42]
Degradation of BRD4, combination with CRBN ligand [drawing 421]: ✓ (A black check mark indicates efficacy of 30% to 70% or higher protein degradation)

CCNC(=O)C[C@@H]1N=C(c2ccc(Cl)cc2)c2cc(OCCOCCOCCOCCNC(=O)c3ccc(B(O)O)cc3)ccc2-n2c(C)nnc21 [BRD-E43]
Degradation of BRD4, combination with CRBN ligand [drawing 421]: ✓ (A black check mark indicates efficacy of 30% to 70% or higher protein degradation)
Degradation of BRD4, combination with CRBN ligand [drawing 422]: ✓ (A black check mark indicates efficacy of 30% to 70% or higher protein degradation)

COc1ccc2c(c1)C(c1ccc(Cl)cc1)=N[C@@H](CC(=O)NCCOCCOCCNC(=O)c1ccc(B(O)O)cc1)c1nnc(C)n1-2 [BRD-E45]
Degradation of BRD4, combination with CRBN ligand [drawing 422]: ✓ (A black check mark indicates efficacy of 30% to 70% or higher protein degradation)
Degradation of BRD4, combination with VHL ligand [drawing 442] (Table 3): ✓ (A black check mark indicates efficacy of 30% to 70% or higher protein degradation)

CCNC(=O)C[C@@H]1N=C(c2ccc(SCc3ccc(B(O)O)cc3)cc2)c2cc(OC)ccc2-n2c(C)nnc21 [BRD-E54]
Degradation of BRD4, combination with VHL ligand [drawing 442] (Table 3): ✓ (A black check mark indicates efficacy of 30% to 70% or higher protein degradation)

COc1ccc2c(c1)C(c1ccc(Cl)cc1)=N[C@@H](CC(=O)Nc1ccc(B(O)O)cc1)c1nnc(C)n1-2 [BRD-E74, (4-(2-((4S)-6-(4-chlorophenyl)-8-methoxy-1-methyl-4H-benzo[f][1,2,4]triazolo[4,3-a][1,4]diazepin-4-yl)acetamido)phenyl)boronic acid]
Degradation of BRD4, combination with CRBN ligand [drawing 397]: ✓ (A black check mark indicates efficacy of 30% to 70% or higher protein degradation)
Degradation of BRD4, combination with MDM2 ligand [drawing 431]: ✓ (A black check mark indicates efficacy of 30% to 70% or higher protein degradation)

COc1ccc2c(c1)C(c1ccc(Cl)cc1)=N[C@@H](CC(=O)NCCNC(=O)c1ccc(O)c(O)c1)c1nnc(C)n1-2 [BRD-N01]
Degradation of BRD4, combination with CRBN ligand [drawing 457]: ✓ (A black check mark indicates efficacy of 30% to 70% or higher protein degradation)

COc1ccc2c(c1)C(c1ccc(Cl)cc1)=N[C@@H](CC(=O)NCCCCNC(=O)c1ccc(O)c(O)c1)c1nnc(C)n1-2 [BRD-N05]
Degradation of BRD4, combination with CRBN ligand [drawing 457]: ✓ (A black check mark indicates efficacy of 30% to 70% or higher protein degradation)

COc1ccc2c(c1)C(c1ccc(Cl)cc1)=N[C@@H](CC(=O)NCCCCNC(=O)c1cccc(O)c1O)c1nnc(C)n1-2 [BRD-N06]
Degradation of BRD4, combination with CRBN ligand [drawing 457]: ✓ (A black check mark indicates efficacy of 30% to 70% or higher protein degradation)

CCNC(=O)C[C@@H]1N=C(c2ccc(Cl)cc2)c2cc(OCCCCC(=O)Nc3ccc(O)c(O)c3)ccc2-n2c(C)nnc21 [BRD-N22, 5-(((4S)-6-(4-chlorophenyl)-4-(2-(ethylamino)-2-oxoethyl)-1-methyl-4H-benzo[f][1,2,4]triazolo[4,3-a][1,4]diazepin-8-yl)oxy)-N-(3,4-dihydroxyphenyl)pentanamide]
Degradation of BRD4, combination with CRBN ligand [drawing 457]: ✓ (A black check mark indicates efficacy of 30% to 70% or higher protein degradation)

COc1ccc2c(c1)C(c1ccc(Cl)cc1)=N[C@@H](CC(=O)NCCNC(=O)Cc1ccc(O)c(O)c1)c1nnc(C)n1-2 [BRD-N30]
Degradation of BRD4, combination with CRBN ligand [drawing 457]: ✓ (A black check mark indicates efficacy of 30% to 70% or higher protein degradation)

CCNC(=O)C[C@@H]1N=C(c2ccc(Cl)cc2)c2cc(OCCOCCNC(=O)c3ccc(O)c(O)c3)ccc2-n2c(C)nnc21 [BRD-N38, N-(2-(2-(((4S)-6-(4-chlorophenyl)-4-(2-(ethylamino)-2-oxoethyl)-1-methyl-4H-benzo[f][1,2,4]triazolo[4,3-a][1,4]diazepin-8-yl)oxy)ethoxy)ethyl)-3,4-dihydroxybenzamide]
Degradation of BRD4, combination with CRBN ligand [drawing 457]: ✓ (A black check mark indicates efficacy of 30% to 70% or higher protein degradation)

CCNC(=O)C[C@@H]1N=C(c2ccc(Cl)cc2)c2cc(OCCOCCOCCNC(=O)c3ccc(O)c(O)c3)ccc2-n2c(C)nnc21 [BRD-N40]
Degradation of BRD4, combination with VHL ligand [drawing 465] (Table 6, aryl-boronic acid-containing VHL ligand drawn as drawing 465): ✓ (A black check mark indicates efficacy of 30% to 70% or higher protein degradation)

From patent US20240000950A1, “THERAPEUTIC CURE-PRO COMPOUNDS FOR TARGETED DEGRADATION OF BET DOMAIN PROTEINS, AND METHODS OF MAKING AND USING THEM” (CORNELL UNIVERSITY, priority 2020, published 2024)
